In brackets after ≈: the same amount, converted by molar mass. Each block holds one compound with its values, some of them ahead of it.
Key:
[1] = Approximate water solubility by solvent addition method (visual inspection of complete dissolution)
Procedure: The approximate water solubility of Form A and amorphous Rebaudioside X were determined by a solvent addition method in which a weighed sample was treated with aliquots of water. The mixture was generally vortexed and/or sonicated between additions to facilitate dissolution. Complete dissolution of the test material was determined by visual inspection. Solubility was estimated based on the total solvent used to provide complete dissolution. The actual solubility may be greater than the value calculated because of the use of solvent aliquots that were too large or due to a slow rate of dissolution.

[2] = Water solubility of starting sample and spray-dried product (Example 4); type: physicochemical
[3] = Dynamic Vapor Sorption (DVS) isotherm; type: physicochemical
Procedure: The Dynamic Vapor Sorption (DVS) DVS data were collected on a VTI SGA-100 Vapor Sorption Analyzer. NaCl and PVP were used as calibration standards. The sample was not dried prior to analysis. Sorption and desorption data were collected over a range from 5 to 95% RH at 10% RH increments under a nitrogen purge. The equilibrium criterion used for analysis was less than 0.0100% weight change in 5 minutes with a maximum equilibration time of 3 hours. Data were not corrected for the initial moisture content of the samples.

[4] = Duration of clarity of aqueous solutions at various test material/water ratios, with or without filtration (Example 9); type: physicochemical
Text: The water solubility of amorphous Rebaudioside X prepared according to Example 4 was compared in various test material/water ratios with or without filtration prior to solubility determination. Generally, filtration performed after dissolution of sample assist the duration of clarity of the sample (or delays the precipitation/recrystallization of sample). […]

[5] = Equilibrium solubility in water by UV absorbance at 205 nm (Example 10); type: physicochemical; settings: 25°C; for Original Sample Concentration: 250 mg in 10 mL water
Procedure: Samples were analyzed with a Cary 50 UV-Vis dual beam spectrophotometer. The detector was zeroed with a cuvette filled with water prior to sample analysis. Samples were analyzed at room temperature in 1.0 cm quartz cuvette using a scan rate of 600 nm/min in a range of 200 - 400 nm.
25.8 mg of amorphous Rebaudioside X was added to a 10-mL volumetric flask and dissolved 10 mL with water. This stock solution was diluted to five concentration levels for UV measurement.
A calibration curve at 205 nm was established (Abs at 205 nm vs. concentration) to provide the equation y = 5.0625x + 0.0022. R^2 was 0.9999. This equation was used for the subsequent determination of Rebaudioside X concentrations.
250 mg of amorphous Rebaudioside X was added to an amber vial and 10 mL of water was added. The mixture was stirred at room temperature about 10 minutes to yield a transparent solution with only small amount of solid remaining. The mixture became opaque rapidly. The mixture was placed on a mechanical oscillator set at a speed of 250 and 25°C. At the sampling time point of 1, 16, 24, 48, 72, 96, and 192 hours, an aliquot of the slurry was transferred to a centrifuge tube and separated at a speed of 16K rcf for 15 minutes. 200 µL of the clear supernatant was transferred to a 50-mL volumetric flask, 10 mL of water was added and mixed well before UV analysis.

[6] = Table 6, water, solvent addition

Approximate Water Solubility [1, 6]: >10 mg/mL
SMILES: C=C1C[C@@]23CC[C@H]4[C@@](C)(CCC[C@@]4(C)C(=O)O[C@@H]4O[C@H](CO)[C@@H](O)[C@H](O[C@@H]5O[C@H](CO)[C@@H](O)[C@H](O)[C@H]5O)[C@H]4O[C@@H]4O[C@H](CO)[C@@H](O)[C@H](O)[C@H]4O)[C@@H]2CC[C@]1(O[C@@H]1O[C@H](CO)[C@@H](O)[C@H](O[C@@H]2O[C@H](CO)[C@@H](O)[C@H](O)[C@H]2O)[C@H]1O[C@@H]1O[C@H](CO)[C@@H](O)[C@H](O)[C@H]1O)C3 [Amorphous (water process)]

Approximate Water Solubility [1, 6]: 1.4 mg/mL | Approximate Water Solubility ([1]; discussion text of Example 13): 14 mg/mL | water solubility [2]: 0.05%
SMILES: C=C1C[C@@]23CC[C@H]4[C@@](C)(CCC[C@@]4(C)C(=O)O[C@@H]4O[C@H](CO)[C@@H](O)[C@H](O[C@@H]5O[C@H](CO)[C@@H](O)[C@H](O)[C@H]5O)[C@H]4O[C@@H]4O[C@H](CO)[C@@H](O)[C@H](O)[C@H]4O)[C@@H]2CC[C@]1(O[C@@H]1O[C@H](CO)[C@@H](O)[C@H](O[C@@H]2O[C@H](CO)[C@@H](O)[C@H](O)[C@H]2O)[C@H]1O[C@@H]1O[C@H](CO)[C@@H](O)[C@H](O)[C@H]1O)C3 [Form A Rebaudioside X, (13-[2-O-β-D-glucopyranosyl-3-O-β-D-glucopyranosyl-β-D-glucopyranosyl)oxy] ent kaur-16-en-19-oic acid-[2-O-β-D-glucopyranosyl-3-O-β-D-glycopyranosyl) ester]

weight loss upon desorption ([3]; DVS desorption from 95% to 5% RH): 26.0 wt% | weight gain with increasing relative humidity ([3]; DVS sorption from 5% to 95% RH): 26.3 wt% | weight loss upon equilibration at 5% RH ([3]; DVS, 5% RH): 3.1 wt% | Duration of Clarity of Sample ([4]; Sample 1: 250 mg/500 mL water, not filtered): > 60 days^a | Duration of Clarity of Sample ([4]; Sample 2: 500 mg/500 mL water, not filtered): > 60 days^a | Duration of Clarity of Sample ([4]; Sample 3: 750 mg/500 mL water, not filtered): > 0.12 days | Duration of Clarity of Sample ([4]; Sample 5: 625 mg/250 mL water, filtered (0.22 µm membrane)): > 1 days | Duration of Clarity of Sample ([4]; Sample 6: 1750 mg/500 mL water, not filtered): ∼3 h | Duration of Clarity of Sample ([4]; Sample 7: 1750 mg/500 mL water, filtered (0.22 µm membrane)): > 1 days | Duration of Clarity of Sample ([4]; Sample 8: 1000 mg/100 mL water, filtered (0.22 µm membrane)): ∼2 h | Original Sample Concentration ([5]; sampling time 1 hrs): 5.8 mg/mL | Original Sample Concentration ([5]; sampling time 16 hrs): 2.7 mg/mL | Original Sample Concentration ([5]; sampling time 24 hrs): 2.6 mg/mL | Original Sample Concentration ([5]; sampling time 48 hrs): 2.5 mg/mL | Original Sample Concentration ([5]; sampling time 72 hrs): 2.8 mg/mL | Original Sample Concentration ([5]; sampling time 96 hrs): 2.8 mg/mL | Original Sample Concentration ([5]; sampling time 192 hrs): 2.6 mg/mL | solubility thermodynamic ([5]; water): 2600 µg/mL (≈ 2010 µM) | time until equilibrium was established ([5]; water): ≤ 16 h | approximate solubility ([1]; aqueous, grams of Rebaudioside X per 100 mL water): greater than 0.3% | water solubility [2]: greater than 1%
SMILES: C=C1C[C@@]23CC[C@H]4[C@@](C)(CCC[C@@]4(C)C(=O)O[C@@H]4O[C@H](CO)[C@@H](O)[C@H](O[C@@H]5O[C@H](CO)[C@@H](O)[C@H](O)[C@H]5O)[C@H]4O[C@@H]4O[C@H](CO)[C@@H](O)[C@H](O)[C@H]4O)[C@@H]2CC[C@]1(O[C@@H]1O[C@H](CO)[C@@H](O)[C@H](O[C@@H]2O[C@H](CO)[C@@H](O)[C@H](O)[C@H]2O)[C@H]1O[C@@H]1O[C@H](CO)[C@@H](O)[C@H](O)[C@H]1O)C3 [amorphous Rebaudioside X, (13-[2-O-β-D-glucopyranosyl-3-O-β-D-glucopyranosyl-β-D-glucopyranosyl)oxy] ent kaur-16-en-19-oic acid-[2-O-β-D-glucopyranosyl-3-O-β-D-glycopyranosyl) ester]

Source: patent EP3653636A1, “COMPOSITIONS AND METHODS FOR IMPROVING REBAUDIOSIDE X SOLUBILITY” (The Coca-Cola Company, priority 2012, dated 2014)
